#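 Assay format: 96-well plates, 48-hour exposure. The concentration for full growth arrest is given as TGI.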
# Tested on: P388/ADR leukemia
# Experiment: NCI tumour cell line growth inhibition, 48 h
smiles,measurement,value
O=C(O)/C=C/C(=O)N1C/C(=C\c2ccccc2)C(=O)/C(=C/c2ccccc2)C1,TGI,> 70.7 µM

# Source: PubChem BioAssay (NCI)
